# Laboratory results as given in patent US6350410B1, “Method and composition for inhibiting biological fouling in an irrigation system” (CH20 Incorporated, priority 1995, dated 2002).
# Tested on: pond water supporting algal and protozoan life, inoculated with bacterium escherichia coli
# Assay: Plate count test on pond water sample inoculated with escherichia coli
# Format: cell-based
# Details: for population (plate count): after five days, untreated sample 100 organisms per milliliter
# Description: A sample of pond water was obtained. […] The pond water was inoculated with a large population of bacterium escherichia coli. A plate count test was run on the pond water sample to determine the population. […] Dilution was performed with pond water to yield a population that would register on a plate count test. One liter of the sample was removed and left untreated.
# A second one liter portion was taken from the pond water sample. A composition of about 2% active zinc sulfate was mixed with the water sample to yield active zinc at about 0.1 ppm.
# A third one liter portion was taken from the pond water sample. A composition of about 2% active zinc sulfate was mixed with the water sample to yield active zinc at about 10.0 ppm.
# A fourth one liter portion was taken from the pond water sample. A zinc chelated product was prepared containing about 2% active zinc sulfate which was chelated on a 1:1 molar ratio with 1-hydroxyethane 1,1-diphosphonic acid (HEDPA). The chelated zinc product was added to the sample to yield chelated zinc at about 0.1 ppm.
# A fifth one liter portion was taken from the pond water sample. A zinc chelated product was prepared containing about 2% active zinc sulfate which was chelated on a 1:1 molar ratio with HEDPA. The chelated zinc product was added to the sample to yield chelated zinc at about 10.0 ppm.
compound,measurement,setting,value
"O=S(=O)([O-])[O-].[Zn+2] [active zinc, zinc sulfate]",population (plate count),about 0.1 ppm in one liter pond water sample,1 organism per milliliter
same,population (plate count),about 10.0 ppm in one liter pond water sample,6 organisms per milliliter
same,treatment of biological fouling (in words),"about 10.0 ppm, compared to the untreated sample",effective treatment
